Columns and labels:
Format in all cases: cell-based, human
[1] = tested on: pluripotent stem cell differentiation cultures; assay: Quantitative gene expression analysis during differentiation (Day 0, 4, 8, 12, 15); conditions: for expression of SCL: FIG. 6M; for expression of FOXF1: FIG. 6E; for expression of FOXC1: FIG. 6F
Description: RNA from the pluripotent stem cell differentiation cultures was harvested at multiple time points corresponding to stages of development from pluripotent stem cells to hematopoietic lineages during in vitro culture. Cells were lysed using Trizol (Life Technologies, Carlsbad Calif.), and RNA was isolated according to the manufacturer's specifications. A cDNA library was reverse transcribed by the High Capacity RNA-to-cDNA Kit from Applied Biosystems (Life Technologies, Carlsbad, Calif.). PCR products were amplified for 40 cycles using primers designed for the gene of interest.
Gene expression studies were carried out to determine expression of key genes for the major divergences in the pathway from iPS to HSC. Briefly, RNA from the differentiation cultures was harvested at multiple time points (Day 0, 4, 8, 12, 15), corresponding to stages of development during in vitro culture and differentiation of pluripotent stem cells to hematopoietic lineages using Differentiation Medium 1. Cells were lysed using Trizol (Life Technologies, Carlsbad Calif.) and RNA was isolated according to manufacturer's specifications. A cDNA library was reverse transcribed using the RNA-to-cDNA Kit from Applied Biosystems (Life Technologies, Carlscad, Calif.). PCR products were amplified using appropriate primers designed for the genes of interest for 40 cycles.
To understand how RA-signaling inhibition with DEAB may lead to increased output of the most primitive blood cells (phenotypic HSCs: CD45+, CD43+, CD34+, CD38−, CD90+, CD45RA−) from pluripotent stem cells without an increase in the total blood (mature cells and progenitors), we performed quantitative gene expression analyses for key development markers at various time points during the differentiation protocol. As the developmental marker genes we surveyed are not known to be direct targets of RA signaling, we can expect the marker gene expression levels to correlate to the cell numbers in culture.

ES and iPS cells = assay: Small molecule screen, FACS of cells differentiated from pluripotent stem cells; conditions: relative to DMSO control, DEAB 10 μM, rapamycin 0.1 μM
Description: (§1) Cells from the differentiation cultures were collected at time points indicated and washed in phosphate-buffered saline (PBS) supplemented with 2% FBS. Adherent cells were individualized using TrypLE (Life Technologies, Carlsbad Calif.), passed through a 27.5-gauge needle and filtered through a 40-70 μm cell strainer (BD Falcon, San Diego, Calif., www.bdbiosciences.com). Cells were treated with 7-aminoactinomycin D (7AAD) before analysis, and positive cells were gated out of results. Cells were stained with fluorescence-conjugated antibodies for the hematopoietic stem and progenitor cell markers CD45, CD43, CD34, CD38, CD90; CD45RA. Cells were analyzed on a FACS Canto (BD, Franklin Lakes, N.J., www.bd.com).
A small molecule screen was performed to identify compounds that improve the output of hematopoietic progenitor cells (HPCs; CD45+, CD43+, CD34+) and phenotypic hematopoietic stem cells (HSCs; CD45+, CD43+, CD34+, CD38−, CD90+, CD45RA−) differentiated from pluripotent stem cells. Molecules targeting pathways known or suspected of being important in hematopoiesis were screened. […] Cells were analyzed using fluorescence activated cell sorting (FACS; FIGS. 3A, 3B, and 3C) and CFU-GEMM assays (FIG. 3D). […]

[2] = tested on: Pluripotent stem cells (iPS and ES); assay: Effects of DEAB on blood cell phenotypes, flow cytometry at Day 16; conditions: DEAB 10 uM vs DMSO
Description: as §1
Cells were counted using the FACS cell counter feature (BD) or by cytometer using a bright-field microscope to obtain viable cell numbers. The total numbers of cells of each subpopulation were calculated by multiplying the number of cells by the proportion of cells of that lineage as determined by flow cytometry. Statistical analyses of data points and error bars of this study show mean and standard deviation, with statistical significance assessed by the Student's t-test.
From Example 1, DEAB was selected to move forward into an experiment further establishing the phenotypes of blood cells emerging from the differentiation in order to identify at what stage of differentiation DEAB may exert its effects. Pluripotent stem cells (iPS and ES) were grown and induced to produce embryoid bodies on Day 8 as described. The EBs were then exposed to Differentiation Medium 1 for a total of 8 days with partial medium changes made every other day as described. Cells were harvested on Day 16 and washed in phosphate-buffered saline (PBS) supplemented with 2% FBS. Adherent cells were individualized using TrypLE (Life Technologies, Carlsbad Calif.), passed through a 27.5-gauge needle and filtered through a 40-70 μm cell strainer (BD Falcon, San Diego, Calif., www.bdbiosciences.com). Cells were treated with 7-aminoactinomycin D before analysis and positive cells were gated out of results. Cells were stained with fluorescence conjugated antibodies for the hematopoietic stem and progenitor cell markers CD45, CD43, CD34, CD38, CD90, CD45RA. Cells were analyzed on an FACS Canto (BD, Franklin Lakes, N.J., www.bd.com).

[3] = DEAB vs DMSO, early time points

Compound: CCN(CC)c1ccc(C=O)cc1 [DEAB, 4-diethylaminobenzaldehyde]
- expression of SCL ([1]; DEAB compared to DMSO, Day 15): increased SCL expression
- expression of SCL ([1]; DEAB vs DMSO, Day 8-12): Increased SCL expression with DMSO compared to DEAB
- expression of FOXF1 ([1]; DEAB vs DMSO, Day 8 onward): comparable
- expression of RUNX1 (definitive hematopoietic cell marker) ([1]; DEAB vs DMSO, Day 12-15, FIG. 6I): increased expression
- expression of cardiogenic lateral plate mesoderm marker NKX2.5 ([1]; DEAB vs DMSO, Day 12 onward, FIG. 6G): reduced expression
- expression of FOXC1 ([1]; DEAB vs DMSO, Days 6-12): significantly reduced
- increase in expression of primitive streak mesoderm marker MIXL1 ([1]; DEAB vs DMSO, FIG. 6C): 20%
- expression of endoderm specific marker SOX17 ([1]; DEAB vs DMSO, FIG. 6D): significantly reduced
- CD31 expression (primitive wave endothelial cells) ([1]; DEAB vs DMSO, FIG. 6L): reduced
- expression of ectoderm and neuroectoderm marker PAX6 ([1]; DEAB vs DMSO, early time point, FIG. 6A): reduced expression
- expression of FOXF1 [1, 3]: elevated levels
- expression of FOXC1 [1, 3]: elevated levels
- expression of mesoderm marker Brachyury ([1]; DEAB vs DMSO, first days of differentiation, FIG. 6B): significantly increased
- expression of PAX6 ([1]; DEAB vs DMSO, later time points, FIG. 6A): later equalized
- expression of FLK1 ([1]; DEAB, Day 4): high levels
- expression of RARa ([1]; DEAB, Day 8, FIG. 6N): reduced levels
- expression of RARb ([1]; DEAB, Day 8, FIG. 6O): reduced levels
- expression of APLNR ([1]; DEAB, Day 12, FIG. 6H): expressed highly
- expression of PDGFRA ([1]; DEAB, Day 12, FIG. 6J): downregulated
- expression of FLK1 ([1]; DEAB, Days 12-15): increased
- expression of RA target CD38 by PCR ([1]; DEAB, FIG. 6P): reduction
- output of total blood cells (CD45+, CD43+) (ES and iPS cells; FIG. 3C): increased
- output of HSCs (CD45+, CD43+, CD34+, CD38−, CD90+, CD45RA−) (ES and iPS cells; FIGS. 3A and B): increased
- blood cells (CD45+, CD43+) ([2]; Day 16): modestly higher values
- hematopoietic progenitor cells (CD45+, CD43+, CD34+) ([2]; Day 16): modestly higher values
- population of cells exhibiting a hematopoietic stem cell phenotype (CD45+, CD43+, CD34+, CD38−, CD90+, CD45RA−) ([2]; Day 16): substantial improvement
- total viable cells ([2]; Day 16): modestly higher values
- increase in generation of the phenotypic stem cell phenotype ([2]; FIGS. 4B and 4D): over 3 fold

— patent publication US9428732B2, “Compositions and methods for differentiating pluripotent stem cells into primitive blood cells and uses thereof” (Primorigen Biosciences, Inc., priority 2011, dated 2016)
